{"source": "patent US20040009537A1", "about": "“Methods of modulating and of identifying agents that modulate intracellular calcium” (priority 2002, published 2004)", "origin": "cited, not measured here", "system": "HeLa cells", "details": "HeLa cells treated with histamine; decrease from about 60-400 μM"}
{"smiles": "NCCc1c[nH]cn1", "note": "[histamine]", "values": [{"measurement": "ER free calcium", "value": "1 to 50", "unit": "µM"}]}
